The test system of the test is TW1 hESCs. Put plainly: Comparison of additive groups: morphology and Oct4/Nestin immunofluorescence. The test is classed as cell-based, human. The conditions noted are these: compared to group 3 (BIO + SB431542). An excerpt: The TW1 hESCs were divided into four groups according to the additives at culture day 3. The detail of the above steps refers to the examples 1 to 3.
Referring to the methods in examples 5 and 6, the protein expressions of Oct4 and Nestin in the each groups and the results were examined and shown in FIG. 9.

Take fibroblast growth factor-2 [FGF2]: the “compaction and neural rosettes formation” value is recorded as “further enhanced”.

The record behind these values is patent publication US10472607B2, “Culture medium and method for inducing differentiation of pluripotent stem cells into neuroepithelial cells” (National Chung Hsing University, priority 2011, dated 2019).
